Experimental data from US20140235627A1, “ß2-ADRENOCEPTOR AGONIST FOR IMPROVEMENT OF EXERCISE TOLERANCE” (BOEHRINGER INGELHEIM INTERNATIONAL GMBH, priority 2012, published 2014).

Legend:
Assay type in all cases: in vivo, human
[1] = test system: patients with COPD; assay: Rescue medication use (electronic diary) in 48-week pivotal studies; settings: for Reduction in daytime rescue bronchodilator use compared to placebo / Reduction in nighttime rescue bronchodilator use compared to placebo: at 48 weeks
Method: Additionally to that rescue medication use was assessed in 48-week pivotal studies using an electronic diary, indicated whether the bronchodilating effects of olodaterol provided sufficient symptomatic benefit to reduce the need for albuterol to control symptoms on a daily and nightly basis.

[2] = test system: patients with COPD; assay: Intensity of breathing discomfort (Borg Scale) at isotime during exercise (studies 1222.37 and 1222.38); settings: after 6 weeks
Excerpt: (§1) Constant work rate cycle ergometry at 75% Wcap was selected as the exercise modality based on previous experience with other bronchodilators. The primary efficacy endpoint was endurance time, while IC at isotime and the intensity of breathing discomfort at isotime were key secondary endpoints. Isotime was defined as the endurance time of the constant work rate exercise test of shortest duration, which ensured that IC and intensity of breathing discomfort were compared across treatments at the same time of exercise for an individual.

[3] = test system: patients with COPD; assay: Endurance time during constant work rate cycle ergometry at 75% Wcap (studies 1222.37 and 1222.38); settings: after 6 weeks
Excerpt: While, the FDA COPD draft guidance for industry notes that—assessment of exercise capacity by treadmill or cycle ergometry combined with lung volume assessment potentially can be a tool to assess efficacy of a drug (Guidance for industry: chronic obstructive pulmonary disease: developing drugs for treatment (draft guidance, November 2007). Rockville: U.S. Department of Health and Human Services, Food and Drug Administration, Center for Drug Evaluation and Research (CDER) (2007)) two studies (1222.37 & 1222.38) were designed to evaluate the effects of olodaterol on improvement of exercise.
as §1
At baseline, the geometric mean exercise endurance time during constant work rate cycle ergometry to symptom limitation at 75% of maximal work capacity was 414 seconds (6 minutes 54 seconds) in study 1222.37 and 374 seconds (6 minutes 14 seconds) in study 1222.38.

[4] = test system: patients with COPD; assay: Inspiratory capacity (IC) at isotime during exercise (studies 1222.37 and 1222.38); settings: after 6 weeks
Excerpt: as §1

[5] = study 1222.37, olodaterol 5 μg, listed as olodaterol
[6] = study 1222.37, olodaterol 10 μg
[7] = study 1222.37, olodaterol 10 μg, listed as olodaterol
[8] = study 1222.38, olodaterol 5 μg, listed as olodaterol
[9] = study 1222.38, olodaterol 10 μg
[10] = study 1222.38, olodaterol 10 μg, listed as olodaterol

COc1ccc(CC(C)(C)NC[C@H](O)c2cc(O)cc3c2OCC(=O)N3)cc1 [Olodaterol]
Reduction in daytime rescue bronchodilator use compared to placebo ([1]; 1222.11/12, 5 μg): −0.455 units
Reduction in nighttime rescue bronchodilator use compared to placebo ([1]; 1222.11/12, 5 μg): −0.497 units
Reduction in daytime rescue bronchodilator use compared to placebo ([1]; 1222.11/12, 10 μg): −0.574 units
Reduction in nighttime rescue bronchodilator use compared to placebo ([1]; 1222.11/12, 10 μg): −0.775 units
Reduction in daytime rescue bronchodilator use compared to placebo ([1]; 1222.13/14, 5 μg): −0.269 units
Reduction in nighttime rescue bronchodilator use compared to placebo ([1]; 1222.13/14, 5 μg): −0.530 units
Reduction in daytime rescue bronchodilator use compared to placebo ([1]; 1222.13/14, 10 μg): −0.337 units
Reduction in nighttime rescue bronchodilator use compared to placebo ([1]; 1222.13/14, 10 μg): −0.617 units
Reduction in daytime and nighttime rescue medication use relative to twice-daily formoterol ([1]; studies 1222.13, 1222.14, once-daily olodaterol): comparable to twice-daily formoterol
Intensity of Breathing Discomfort at Isotime During Exercise, Treatment mean (SE) ([2]; study 1222.37, olodaterol 5 μg): 5.104 (0.182) Borg Scale
Intensity of Breathing Discomfort at Isotime, Difference to placebo Mean (SE) ([2]; study 1222.37, olodaterol 5 μg): −0.766 (0.223) Borg Scale
Intensity of Breathing Discomfort at Isotime, Difference to placebo Mean (SE) [2, 5]: statistically significant reduction
Intensity of Breathing Discomfort at Isotime During Exercise, Treatment mean (SE) [2, 6]: 5.235 (0.185) Borg Scale
Intensity of Breathing Discomfort at Isotime, Difference to placebo Mean (SE) [2, 6]: −0.634 (0.225) Borg Scale
Intensity of Breathing Discomfort at Isotime, Difference to placebo Mean (SE) [2, 7]: statistically significant reduction
Intensity of Breathing Discomfort at Isotime During Exercise, Treatment mean (SE) ([2]; study 1222.38, olodaterol 5 μg): 5.250 (0.180) Borg Scale
Intensity of Breathing Discomfort at Isotime, Difference to placebo Mean (SE) ([2]; study 1222.38, olodaterol 5 μg): −0.336 (0.214) Borg Scale
Intensity of Breathing Discomfort at Isotime, Difference to placebo Mean (SE) [2, 8]: no significant differences
Intensity of Breathing Discomfort at Isotime During Exercise, Treatment mean (SE) [2, 9]: 5.520 (0.181) Borg Scale
Intensity of Breathing Discomfort at Isotime, Difference to placebo Mean (SE) [2, 9]: −0.066 (0.214) Borg Scale
Intensity of Breathing Discomfort at Isotime, Difference to placebo Mean (SE) [2, 10]: no significant differences
Adjusted Mean Endurance Time, Treatment Mean (SE) ([3]; study 1222.37, olodaterol 5 μg): 421.58 (13.459) Seconds
Endurance time increase compared with placebo ([3]; study 1222.37, olodaterol 5 μg): 14.0%
Adjusted Mean Endurance Time, Treatment Mean (SE) [3, 6]: 420.72 (13.602) Seconds
Endurance time increase compared with placebo [3, 6]: 13.8%
Adjusted Mean Endurance Time, Treatment Mean (SE) ([3]; study 1222.38, olodaterol 5 μg): 396.31 (13.680) Seconds
Endurance time increase compared with placebo ([3]; study 1222.38, olodaterol 5 μg): 11.8%
Adjusted Mean Endurance Time, Treatment Mean (SE) [3, 9]: 391.45 (13.566) Seconds
Endurance time increase compared with placebo [3, 9]: 10.5%
Adjusted Mean Inspiratory Capacity at Isotime During Exercise, Treatment mean (SE) ([4]; study 1222.37, olodaterol 5 μg): 2.099 (0.038) L
Inspiratory Capacity at Isotime, Mean (SE) compared to placebo ([4]; study 1222.37, olodaterol 5 μg): 0.182 (0.036) L
Inspiratory Capacity at Isotime, Mean (SE) compared to placebo [4, 5]: statistically significant increase
Adjusted Mean Inspiratory Capacity at Isotime During Exercise, Treatment mean (SE) [4, 6]: 2.091 (0.038) L
Inspiratory Capacity at Isotime, Mean (SE) compared to placebo [4, 6]: 0.174 (0.036) L
Inspiratory Capacity at Isotime, Mean (SE) compared to placebo [4, 7]: statistically significant increase
Adjusted Mean Inspiratory Capacity at Isotime During Exercise, Treatment mean (SE) ([4]; study 1222.38, olodaterol 5 μg): 2.246 (0.039) L
Inspiratory Capacity at Isotime, Mean (SE) compared to placebo ([4]; study 1222.38, olodaterol 5 μg): 0.084 (0.035) L
Inspiratory Capacity at Isotime, Mean (SE) compared to placebo [4, 8]: statistically significant increase
Adjusted Mean Inspiratory Capacity at Isotime During Exercise, Treatment mean (SE) [4, 9]: 2.328 (0.039) L
Inspiratory Capacity at Isotime, Mean (SE) compared to placebo [4, 9]: 0.166 (0.034) L
Inspiratory Capacity at Isotime, Mean (SE) compared to placebo [4, 10]: statistically significant increase
